Assay [1] addresses K-Ras G13C (Homo sapiens (Human), UniProt P01116+P62937, G13C). Description: Ras-Raf (BRAF RBD) disruption / FRET / MOA assay, KRAS G13C. It is filed as biochemical. As to conditions: KRAS G13C; Ras-Raf disruption/FRET/MOA assay; read-out: IC50* KRAS G13C FRET data. The procedure, abridged: (§1)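 Compound-driven ternary complex of nucleotide-loaded Ras with cyclophilin A, disrupting BRAF RBD binding. 10-point 3-fold dilution from 30 μM final, 3 h at 25° C, then anti-His Eu-W1024 (10 nM) and anti-GST allophycocyanin (50 nM) for 1.5 h. IC50 from TR-FRET ratio decrease versus DMSO.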

The target of assay [2] is K-Ras G12C (Homo sapiens (Human), UniProt P01116+P62937, G12C). Nature of the assay: Ras-Raf (BRAF RBD) disruption / FRET / MOA assay, KRAS G12C. The format is biochemical. The note with it: KRAS G12C; Ras-Raf disruption/FRET/MOA assay; read-out: IC50* KRAS G12C FRET data. The procedure, abridged:
as §1

In assay [3] the target is KRAS WT (Homo sapiens (Human), UniProt P01116+P62937). Description: Ras-Raf (BRAF RBD) disruption / FRET / MOA assay, KRAS WT. It is filed as biochemical. As to conditions: read-out: IC50* KRAS WT FRET data. The method in brief: as §1
Sequence of KRAS WT (P01116-2 other isoform, or with tags, fused parts or gaps): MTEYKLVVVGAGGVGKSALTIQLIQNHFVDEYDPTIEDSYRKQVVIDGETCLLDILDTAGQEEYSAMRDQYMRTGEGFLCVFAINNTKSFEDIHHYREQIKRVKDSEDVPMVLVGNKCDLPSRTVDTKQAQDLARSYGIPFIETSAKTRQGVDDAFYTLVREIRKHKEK
Sequence of KRAS WT (P62937 whole entry): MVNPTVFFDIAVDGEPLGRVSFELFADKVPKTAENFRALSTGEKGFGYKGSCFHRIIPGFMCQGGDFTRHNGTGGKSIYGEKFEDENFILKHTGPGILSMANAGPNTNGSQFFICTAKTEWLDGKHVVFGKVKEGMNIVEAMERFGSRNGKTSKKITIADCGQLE
In assay [4] the test system is NCI-H358 (K-Ras G12C). Nature of the assay: CellTiter-Glo cell viability assay, NCI-H358. It is filed as cell-based, human. The note with it: Homo sapiens, NCI-H358, 120 h, NCI-H358, 5-day treatment; class symbols; read-out: Additional H358 Cell Viability assay data (K-Ras G12C, IC50). The procedure, abridged:
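Viability of K-Ras mutant lines is measured by ATP luminescence after five days of compound treatment. Percent of DMSO control is calculated and dose-response data are fitted with a four-parameter logistic equation.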
(In ATP-based viability assays light output follows the ATP content of the culture.)

Assay [5] concerns the target KRAS G12V (Homo sapiens (Human), UniProt P01116+P62937, G12V). Description: Ras-Raf (BRAF RBD) disruption / FRET / MOA assay, KRAS G12V. The format is biochemical. The note with it: read-out: IC50* KRAS G12V FRET data. The procedure, abridged:
as §1

In assay [6] the target is KRAS Q61H (Homo sapiens (Human), UniProt P01116+P62937, Q61H). Nature of the assay: Ras-Raf (BRAF RBD) disruption / FRET / MOA assay, KRAS Q61H. The format is biochemical. As to conditions: Ras-Raf disruption/FRET/MOA assay; class symbols; read-out: KRAS Q61H FRET data IC50. The procedure, abridged:
(§2)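 Compounds (30 μM top final, 10-point 3-fold dilutions) incubated 3 h at 25° C with nucleotide-loaded Ras, cyclophilin A and BRAF RBD. Detection with 10 nM anti-His Eu-W1024 and 50 nM anti-GST allophycocyanin over another 1.5 h. Lowered TR-FRET ratio relative to DMSO wells gives IC50.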

For assay [7], the target named is KRAS G13D (Homo sapiens (Human), UniProt P01116+P62937, G13D). Description: Ras-Raf (BRAF RBD) disruption / FRET / MOA assay, KRAS G13D. It is filed as biochemical. The note with it: read-out: IC50* KRAS G13D FRET data. The procedure, abridged: as §1
Sequence of KRAS G13D (P01116-2 other isoform, or with tags, fused parts or gaps G13D): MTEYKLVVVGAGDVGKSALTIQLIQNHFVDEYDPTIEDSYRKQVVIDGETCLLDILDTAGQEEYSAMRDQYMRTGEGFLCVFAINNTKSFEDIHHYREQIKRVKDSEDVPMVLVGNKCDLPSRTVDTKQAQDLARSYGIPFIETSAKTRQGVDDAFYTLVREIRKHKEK
Sequence of KRAS G13D (P62937 whole entry): as the sequence (P62937 whole entry) above
The target in assay [8] is NRAS Q61R (Homo sapiens (Human), UniProt P01111+P62937, Q61R). Nature of the assay: Ras-Raf (BRAF RBD) disruption / FRET / MOA assay, NRAS Q61R. It is filed as biochemical. As to conditions: NRAS Q61R; Ras-Raf disruption/FRET/MOA assay; read-out: IC50* NRAS Q61R FRET data. The procedure, abridged: as §2
Sequence of NRAS Q61R (P01111 whole entry Q61R): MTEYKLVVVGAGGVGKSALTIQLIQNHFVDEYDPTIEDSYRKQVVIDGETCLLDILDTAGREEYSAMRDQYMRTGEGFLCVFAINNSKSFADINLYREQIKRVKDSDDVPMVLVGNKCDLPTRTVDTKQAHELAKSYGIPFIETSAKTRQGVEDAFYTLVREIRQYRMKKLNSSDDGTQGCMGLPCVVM
Sequence of NRAS Q61R (P62937 whole entry): as the sequence (P62937 whole entry) above
For assay [9], the target named is KRAS G12D (Homo sapiens (Human), UniProt P01116+P62937, G12D). Nature of the assay: Ras-Raf (BRAF RBD) disruption / FRET / MOA assay, KRAS G12D. It is filed as biochemical. As to conditions: Ras-Raf disruption/FRET/MOA assay; class symbols; read-out: KRAS G12D FRET data IC50. The method in brief: as §1
Sequence of KRAS G12D (P01116-2 other isoform, or with tags, fused parts or gaps G12D): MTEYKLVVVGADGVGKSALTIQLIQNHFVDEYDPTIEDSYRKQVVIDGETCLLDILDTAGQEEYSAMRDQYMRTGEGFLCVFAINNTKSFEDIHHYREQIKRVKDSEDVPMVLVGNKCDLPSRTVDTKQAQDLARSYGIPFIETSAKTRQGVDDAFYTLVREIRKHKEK
Sequence of KRAS G12D (P62937 whole entry): as the sequence (P62937 whole entry) above
Assay [10] addresses NRAS WT (Homo sapiens (Human), UniProt P01111+P62937). Nature of the assay: Ras-Raf (BRAF RBD) disruption / FRET / MOA assay, NRAS WT. The format is biochemical. As to conditions: read-out: IC50* NRAS WT FRET data. The method in brief: as §2

This note sets out measurements from patent publication US11566007B2, “Ras inhibitors” (Revolution Medicines, Inc., priority 2019, dated 2023).

Sequence of KRAS Q61H (P01116-2 other isoform, or with tags, fused parts or gaps Q61H): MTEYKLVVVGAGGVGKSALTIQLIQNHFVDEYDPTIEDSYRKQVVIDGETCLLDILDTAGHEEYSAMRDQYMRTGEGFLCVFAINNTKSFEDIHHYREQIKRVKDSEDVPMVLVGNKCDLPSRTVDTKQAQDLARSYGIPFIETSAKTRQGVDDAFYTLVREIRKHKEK
Sequence of KRAS Q61H (P62937 whole entry): as the sequence (P62937 whole entry) above
Sequence of K-Ras G13C (P01116-2 other isoform, or with tags, fused parts or gaps G13C): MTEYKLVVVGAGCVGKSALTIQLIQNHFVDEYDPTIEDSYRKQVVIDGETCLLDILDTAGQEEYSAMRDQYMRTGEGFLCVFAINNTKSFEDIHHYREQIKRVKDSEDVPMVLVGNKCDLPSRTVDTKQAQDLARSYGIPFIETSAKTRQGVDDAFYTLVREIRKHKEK
Sequence of K-Ras G13C (P62937 whole entry): as the sequence (P62937 whole entry) above
Sequence of KRAS G12V (P01116-2 other isoform, or with tags, fused parts or gaps G12V): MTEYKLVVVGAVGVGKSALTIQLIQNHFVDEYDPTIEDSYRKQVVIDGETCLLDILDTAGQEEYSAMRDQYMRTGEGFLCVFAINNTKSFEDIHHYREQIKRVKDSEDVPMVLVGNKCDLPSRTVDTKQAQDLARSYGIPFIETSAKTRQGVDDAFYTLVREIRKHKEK
Sequence of KRAS G12V (P62937 whole entry): as the sequence (P62937 whole entry) above
Sequence of NRAS WT (P01111 whole entry): as the sequence (P01111 whole entry Q61R) above, with R61Q counted along it
Sequence of NRAS WT (P62937 whole entry): as the sequence (P62937 whole entry) above
Sequence of K-Ras G12C (P01116-2 other isoform, or with tags, fused parts or gaps G12C): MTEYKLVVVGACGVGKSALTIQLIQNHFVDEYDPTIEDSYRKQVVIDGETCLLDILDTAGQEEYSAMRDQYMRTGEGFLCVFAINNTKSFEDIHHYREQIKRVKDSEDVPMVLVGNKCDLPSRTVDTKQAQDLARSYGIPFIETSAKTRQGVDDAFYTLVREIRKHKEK
Sequence of K-Ras G12C (P62937 whole entry): as the sequence (P62937 whole entry) above

For `C=CC(=O)N1C[C@@H](C)[C@H](N(C)C(=O)N(C)[C@H](C(=O)N[C@H]2Cc3nc(cs3)-c3ccc4c(c3)c(c(-c3cccnc3[C@H](C)OC)n4CC)CC(C)(C)COC(=O)[C@@H]3CCCN(N3)C2=O)C(C)C)C1` (atropisomer, axis not shown) [Example A588], the IC50 was 1000 to 10000 nM in assay [1]; 100 to 1000 nM in assay [2]; 1000 to 10000 nM in assay [3]; 10 to 100 nM in assay [4]; 1000 to 10000 nM in [5]; 100 to 1000 nM in assay [6]. Moreover, the IC50 in assay [7], in assay [8], in [9] and in assay [10] was 1000 to 10000 nM each time.
Regarding `C=CC(=O)Nc1cnc(OC[C@H](C(=O)N[C@H]2Cc3cccc(c3)-c3ccc4c(c3)c(c(-c3cccnc3[C@H](C)OC)n4CC)CC(C)(C)COC(=O)[C@@H]3CCCN(N3)C2=O)C(C)C)n1C` (atropisomer, axis not shown) [Example A600], the IC50 in assay [1] is 10 to 100 nM; in [2] it was < 10 nM; in [3] it was 100 to 1000 nM; in [4], < 10 nM; in [5], 1000 to 10000 nM; in assay [6], 100 to 1000 nM. Also, the IC50 in [7] is 1000 to 10000 nM; in assay [8], 1000 to 10000 nM; in [9], 1000 to 10000 nM; in assay [10], 100 to 1000 nM.
On to `C=CC(=O)N1CCOC2(C1)CN(C(=O)N(C)[C@H](C(=O)N[C@H]1Cc3nc(cs3)-c3ccc4c(c3)c(c(-c3cccnc3[C@H](C)OC)n4CC(F)(F)F)CC(C)(C)COC(=O)[C@@H]3CCCN(N3)C1=O)C(C)C)C2` (atropisomer, axis not shown) [Example A604], for which the half-inhibitory concentration (IC50) in [1] is 10 to 100 nM; in assay [2] it was 100 to 1000 nM; in [3], 100 to 1000 nM; in assay [4] it was < 10 nM; in assay [5], 100 to 1000 nM; in assay [6], 100 to 1000 nM. In addition, the IC50 in [7] was 1000 to 10000 nM; in assay [8], 100 to 1000 nM; in assay [9], 1000 to 10000 nM; in assay [10], 100 to 1000 nM.
Consider `C=CC(=O)N1CCOC2(CCN(C(=O)N(C)[C@H](C(=O)N[C@H]3Cc4cc(CF)cc(c4)-c4ccc5c(c4)c(c(-c4cccnc4[C@H](C)OC)n5CC(F)(F)F)CC(C)(C)COC(=O)[C@@H]4CCCN(N4)C3=O)C(C)C)CC2)C1` (atropisomer, axis not shown) [Example A605], for which the IC50 in assay [1] is 10 to 100 nM; in assay [2] it was 100 to 1000 nM; in [3], 10 to 100 nM; in assay [4], 10 to 100 nM; in [5], 100 to 1000 nM; in [6], 10 to 100 nM. For the same compound, the IC50 was 100 to 1000 nM in assay [7], 100 to 1000 nM in assay [8], 100 to 1000 nM in assay [9] and 10 to 100 nM in assay [10].
Regarding `C=CC(=O)N1CCOC2(CCN(C(=O)N(C)[C@H](C(=O)N[C@H]3Cc4cccc(c4)-c4ccc5c(c4)c(c(-c4cccnc4[C@H](C)OC)n5CC(F)(F)F)CC(C)(C)COC(=O)[C@@H]4CCCN(N4)C3=O)C(C)C)CC2)C1` (atropisomer, axis not shown) [Example A608], the IC50 in assay [1] fell in the range of 10 to 100 nM; in [2] it was 100 to 1000 nM; in [3] it was 100 to 1000 nM; in assay [4] it was 10 to 100 nM; in assay [5], 100 to 1000 nM; in [6], 10 to 100 nM. For the same compound, the IC50 in [7], in assay [8], in assay [9] and in assay [10] was 100 to 1000 nM each time.
For the compound `C=CC(=O)N1CCC[C@@H]2CN(C(=O)N(C)[C@H](C(=O)N[C@H]3Cc4nc(cs4)-c4ccc5c(c4)c(c(-c4cccnc4[C@H](C)OC)n5CC)CC(C)(C)COC(=O)[C@@H]4CCCN(N4)C3=O)C(C)C)C[C@@H]21` (atropisomer, axis not shown) [Example A619], the IC50 in [1] lay within 100 to 1000 nM; in assay [2], 100 to 1000 nM; in assay [3] it was 1000 to 10000 nM; in [4], 10 to 100 nM; in assay [5], 1000 to 10000 nM; in [6], 100 to 1000 nM. The IC50 in assay [7] lay within 1000 to 10000 nM; in assay [8] it was 100 to 1000 nM; in assay [9], 1000 to 10000 nM; in assay [10] it was 1000 to 10000 nM.
For the compound `CCn1c(-c2cccnc2[C@H](C)OC)c2c3cc(ccc31)-c1csc(n1)C[C@H](NC(=O)[C@H](C(C)C)N(C)C(=O)N1CCC3(CC1)CN(C(=O)/C=C/CF)C3)C(=O)N1CCC[C@H](N1)C(=O)OCC(C)(C)C2` (atropisomer, axis not shown) [Example A622], the IC50 fell in the range of 10 to 100 nM in assay [1]; 10 to 100 nM in [2]; 100 to 1000 nM in assay [3]; 10 to 100 nM in assay [4]; 100 to 1000 nM in assay [5]; 10 to 100 nM in assay [6]. The IC50 in assay [7], in assay [8], in [9] and in assay [10] was 100 to 1000 nM throughout.
As for `CCn1c(-c2cccnc2[C@H](C)OC)c2c3cc(ccc31)-c1csc(n1)C[C@H](NC(=O)[C@@H](F)COC1CN(C(=O)C#CC(C)(C)N(C)C)C1)C(=O)N1CCC[C@H](N1)C(=O)OCC(C)(C)C2` (atropisomer, axis not shown) [Example A626], the IC50 is 1000 to 10000 nM in assay [1]; < 10 nM in assay [2]; 1000 to 10000 nM in assay [3]; 10 to 100 nM in [4]; 1000 to 10000 nM in [5]; 100 to 1000 nM in [6]. For the same compound, the half-inhibitory concentration (IC50) in assay [7], in assay [8], in assay [9] and in assay [10] was 1000 to 10000 nM throughout.
Consider `CO[C@@H](C)c1ncccc1-c1c2c3cc(ccc3n1CC(F)(F)F)N1CCO[C@@H](C[C@H](NC(=O)[C@H](C(C)C)N3CC[C@@]4(CCN(C(=O)C#CC(C)(C)N(C)C)C4)C3=O)C(=O)N3CCC[C@H](N3)C(=O)OCC(C)(C)C2)C1` (atropisomer, axis not shown) [Example A628], for which the IC50 in [1] is 1000 to 10000 nM; in assay [2], < 10 nM; in assay [3], > 10000 nM; in assay [4], 10 to 100 nM; in [5], 1000 to 10000 nM; in assay [6], > 10000 nM. The IC50 in assay [7], in [8], in [9] and in [10] was > 10000 nM throughout.
Consider `C=CC(=O)N(C)CCN1CCN(C(=O)N(C)[C@H](C(=O)N[C@H]2Cc3nc(cs3)-c3ccc4c(c3)c(c(-c3cccnc3[C@H](C)OC)n4CC)CC(C)(C)COC(=O)[C@@H]3CCCN(N3)C2=O)C(C)C)CC1` (atropisomer, axis not shown) [Example A630], for which the IC50 was 10 to 100 nM in [1]; 100 to 1000 nM in assay [2]; 100 to 1000 nM in assay [3]; 10 to 100 nM in assay [4]; 100 to 1000 nM in assay [5]; 100 to 1000 nM in assay [6]. Besides, the IC50 in assay [7] was in the range of 1000 to 10000 nM; in assay [8], 100 to 1000 nM; in [9], 1000 to 10000 nM; in assay [10], 100 to 1000 nM.
For the compound `C=CC(=O)N(C)[C@H]1CN(C(=O)N(C)[C@H](C(=O)N[C@H]2Cc3nc(cs3)-c3ccc4c(c3)c(c(-c3cccnc3[C@H](C)OC)n4CC)CC(C)(C)COC(=O)[C@@H]3CCCN(N3)C2=O)C(C)C)C[C@H]1F` (atropisomer, axis not shown) [Example A631], the IC50 in assay [1] is 100 to 1000 nM; in assay [2] it was 100 to 1000 nM; in assay [3], 100 to 1000 nM; in assay [4] it was < 10 nM; in assay [5], 100 to 1000 nM; in assay [6], 10 to 100 nM. In addition, the IC50 in assay [7] was 100 to 1000 nM; in assay [8], 100 to 1000 nM; in assay [9], 1000 to 10000 nM; in [10], 100 to 1000 nM.

A word on the IC50: it is the concentration needed to halve the response being measured.
